{"source": "patent US20100168008A1", "about": "“METHOD OF USE OF EPIREGULIN PROTEIN AND NUCLEIC ACID ENCODING THE SAME IN INFLAMMATORY CONDITIONS” (PIRAMAL LIFE SCIENCES LIMITED., priority 2006, published 2010)", "key": {"EREG expression in PBMCs": {"system": "EREG expression in PBMCs", "experiment": "EREG expression in PBMCs after exposure to anti-inflammatory agent, microarray based expression profiling", "format": "cell-based, Human", "experimental": "Exposure of PBMCs to P979 and Rolipram: Human peripheral blood leukocytes were obtained from normal blood donors by density gradient separation, washed with PBS (phosphate buffered saline), and plated on petri dishes using RPMI medium. Cells were treated for 30 minutes with test compounds at concentrations 0.3, 1.0 and 3.0 μM and with Rolipram at 300 μM as a control as shown in the results section and subsequently activated with bacterial lipopolysaccharide (LPS). After 2 hours, cells were harvested and RNA was prepared.\nPreparation of RNA: RNA was prepared by adding 1 ml of trizol reagent (Sigma) subsequently purified using Qiagen-RNAEasy kit, using the instruction from manufacturer's protocol. Quality and quantity of RNA was measured by spectrometry and gel electrophoresis.\nGene expression profiling by microarray: A total of 10 μg of RNA was used to generate cRNA, which is subsequently labeled with Cy3 or Cy5 fluorescent dyes. Control and test cRNAs labeled with Cy3 and Cy5 respectively were pooled and hybridized to DNA chip. […] Following image analysis, image intensity for each of the 23, 290 spots were measured for test and control slides.\nGene expression was expressed as a ratio of the image intensity between test and control slide for a given gene (Table 3). […]"}, "EREG expression in PBMC": {"system": "EREG expression in PBMC", "experiment": "EREG expression in PBMC by real time polymerase chain reaction (RT-PCR)", "format": "cell-based, Human", "conditions": "10 μM drug", "experimental": "Exposure of PBMCs to P979 and Rolipram: Human peripheral blood leukocytes were obtained from normal blood donors by density gradient separation, washed with PBS (phosphate buffered saline), and plated on petri dishes using RPMI medium. […] After 2 hours, cells were harvested and RNA was prepared.\nReal Time Polymerase Chain Reaction (RT-PCR): To confirm the data obtained from microarray, we performed RT-PCR using specific primers for epiregulin gene.\nEREG expression in PBMCs after exposure to anti-inflammatory agent was confirmed by real time polymerase chain reaction (RT-PCR). Microarray based gene expression profiling studied large-scale gene expression. RT PCR focused on the gene/genes of interest and expression analysis was carried out under similar experimental conditions.\nThe aliquot of RNA samples as used for microarray study was used for RT-PCR analysis. The experiment was carried out using cMaster™ RTplusPCR System kit from Eppendorf using the protocol as provided in the kit. Briefly, cDNA was synthesized using RNA from various sources as shown in the results and subsequently quantified during amplification step by incorporation of Syber green dye into the amplicons."}}, "data": [{"smiles": "COc1ccc(C2CNC(=O)C2)cc1OC1CCCC1", "note": "(stereo not drawn) [Rolipram]", "values": [{"measurement": "Ratio intensity (EREG expression, test vs control slide)", "setting": "EREG expression in PBMCs; 300 μM drug, 30 minutes, then LPS activation, harvested after 2 hours", "value": 1.03}, {"measurement": "expression of epiregulin gene up-regulated (in words)", "setting": "EREG expression in PBMCs; microarray", "value": "not"}, {"measurement": "Log-fold Change (EREG expression)", "setting": "EREG expression in PBMC", "value": 1.2}]}]}
